Data reported in patent US4492650A, “A54556 Antibiotics and process for production thereof” (Eli Lilly and Company, priority 1982, dated 1985).
In brackets after ≈: the same amount, converted by molar mass. Several values for one entry are separate records, joined by “and”; a condition that tells them apart may be missing. Equal values may be shown once. Read-outs that look alike come from different tables or passages of the source. Bridge positions count the residues as written; N and C are the ends. Square brackets hold non-standard residues; d marks the D form. Peptide text beside a SMILES is read from it. * marks the point of attachment. ξ: configuration not given here. Octatrienoyl(2E,4E,6E) = C/C=C/C=C/C=C/C(=O)*; ξPro(4ξ-Me) = CC1CNC(C(=O)O)C1; X2 = CCC/C=C/C=C/C(=O)*; NMeA = CN[CH](C)C(=O)O

Assays:
Culture A54556 = experiment: Sensitivity of Culture A54556 to antibiotics, sensitivity discs on ISP medium No. 2 agar; assay type: cell-based, Streptomyces hawaiiensis NRRL 15010; note: key: +: sensitive, zones of inhibition; -: resistant, no zones of inhibition
Protocol: The sensitivity of Culture A54556 to several antibiotics at specific concentrations was determined with sensitivity discs padded onto the surface of plates containing ISP medium No. 2 agar seeded with 2% inoculum of Culture A54556.

[1] = tested on: Streptococcus sp. (Group D) X66; experiment: Disc-plate sensitivity; assay type: cell-based; conditions: second test, Table 13; for Zone diameter: listed as B; for zone of inhibition at 300 µg/disc / zone of inhibition at 30 µg/disc: Streptococcus; for zone of inhibition at 30 µg/disc: read-out: Zone diameter, 30 mcg./disc
[2] = tested on: Bacteroides fragilis 1936B; experiment: MIC, agar-dilution method; assay type: cell-based
From the text: (§1) Antibiotic A54556 factors A, B, C, D, E, F, G, and H have been tested and found to be active against a number of anaerobic bacteria, as recorded in Table 14, which follows, the MIC values having been determined by the agar-dilution method.

[3] = tested on: Bacteroides fragilis 1877; experiment: MIC, agar-dilution method; assay type: cell-based
From the text: as §1

[4] = tested on: Eubacterium aerofaciens 1235; experiment: MIC, agar-dilution method; assay type: cell-based; conditions: Collinsella aerofaciens
From the text: as §1

[5] = tested on: Fusobacterium necrophorum 6054A; experiment: MIC, agar-dilution method; assay type: cell-based
From the text: as §1

[6] = tested on: Propionibacterium acnes 79; experiment: MIC, agar-dilution method; assay type: cell-based; conditions: Cutibacterium acnes
From the text: as §1

[7] = tested on: Peptostreptococcus intermedius 1264; experiment: MIC, agar-dilution method; assay type: cell-based
From the text: as §1

[8] = tested on: Bacteroides melaninogenicus 1856/28; experiment: MIC, agar-dilution method; assay type: cell-based; conditions: Prevotella intermedia
From the text: as §1

[9] = tested on: Clostridium difficile 2994; experiment: MIC, agar-dilution method; assay type: cell-based; conditions: Clostridioides difficile
From the text: as §1

[10] = tested on: Clostridium septicum 1128; experiment: MIC, agar-dilution method; assay type: cell-based
From the text: as §1

[11] = tested on: Bacteroides melaninogenicus 2736; experiment: MIC, agar-dilution method; assay type: cell-based
From the text: as §1

Bacteroides fragilis 111 = experiment: MIC, agar-dilution method; assay type: cell-based
From the text: as §1

[12] = tested on: Bacteroides thetaiotaomicron 1438; experiment: MIC, agar-dilution method; assay type: cell-based
From the text: as §1

[13] = tested on: Fusobacterium symbiosum 1470; experiment: MIC, agar-dilution method; assay type: cell-based
S. pyogenes = experiment: In vivo protection against experimental bacterial infection in mice; conditions: Streptococcus pyogenes, sc, two doses subcutaneously
Protocol: (§2) When two doses of test compound were administered subcutaneously to mice in illustrative infections, the activity is measured as an ED50 value [effective does in mg./kg. to protect fifty percent of the test animals: See Warren Wick et al., J. Bacteriol. 81, 233-235 (1961)]. The ED50 values for these antibiotic A54556 factors are recorded in Table 15, which follows.

Peptococcus prevoti 1281 = experiment: MIC, agar-dilution method; assay type: cell-based
[14] = tested on: Staphylococcus epidermidis EPI1; conditions: second test, Table 13
[15] = tested on: Bacteroides vulgatis 1211; experiment: MIC, agar-dilution method; assay type: cell-based
[16] = tested on: Peptostreptococcus anaerobius 1428; experiment: MIC, agar-dilution method; assay type: cell-based
[17] = tested on: Bacteroides corrodens 1874; experiment: MIC, agar-dilution method; assay type: cell-based; conditions: Eikenella corrodens
[18] = tested on: Streptococcus pyogenes (Group A) C203; conditions: second test, Table 13
[19] = tested on: Staphylococcus aureus V41; conditions: second test, Table 13, benzylpenicillin resistant
[20] = tested on: experimental bacterial infections; experiment: In vivo antimicrobial activity against experimental bacterial infections; conditions: mice, subcutaneously
Protocol: as §2

anaerobic bacteria = experiment: Activity against anaerobic bacteria; assay type: cell-based; conditions: agar-dilution method
[21] = tested on: Staphylococcus aureus 3055; conditions: second test, Table 13, benzylpenicillin-susceptible
[22] = tested on: Peptococcus asaccharolyticus 1302; experiment: MIC, agar-dilution method; assay type: cell-based; conditions: Peptoniphilus asaccharolyticus
[23] = tested on: Clostridium perfringens 81; experiment: microbe, parasite or virus in culture; assay type: cell-based
Electrometric titration = assay type: physicochemical; conditions: 66 percent dimethylformamide in water
From the text: Antibiotic A54556 factor A is a tan, amorphous solid. […] As determined by electron impact and field desorption mass spectrometry, A54556 factor A has a molecular weight of 718.

[24] = tested on: Streptococcus pneumoniae Park I; conditions: second test, Table 13

CC(=O)OCC1=C(C(=O)O)N2C(=O)[C@@H](NC(=O)Cc3cccs3)[C@H]2SC1 [Cephalothin]
Antibiotic Sensitivity of Culture A54556 (Culture A54556; 30 mcg. disc): -

O=C(N[C@H](CO)[C@H](O)c1ccc([N+](=O)[O-])cc1)C(Cl)Cl [Chloromycetin (CAP), Chloromycetin]
Antibiotic Sensitivity of Culture A54556 (Culture A54556; 30 mcg. disc): trace

CC[C@H]1OC(=O)[C@H](C)[C@@H](O[C@H]2C[C@@](C)(OC)[C@@H](O)[C@H](C)O2)[C@H](C)[C@@H](O[C@@H]2O[C@H](C)C[C@H](N(C)C)[C@H]2O)[C@](C)(O)C[C@@H](C)C(=O)[C@H](C)[C@@H](O)[C@]1(C)O [Erythromycin]
Antibiotic Sensitivity of Culture A54556 (Culture A54556; 15 mcg. disc): -

C/C=C/C=C/C=C/C(=O)NC(Cc1ccccc1)C(=O)NC1COC(=O)C2CCCN2C(=O)C(C)NC(=O)C(C)N(C)C(=O)C2CCCN2C1=O (stereo not shown) [Factor B] ({Octatrienoyl(2E,4E,6E)}-FSP[NMeA]AP; ester 2-C; configuration not given here)
Zone diameter ([1]; 30 mcg./disc): 23 mm.
Zone diameter ([1]; 300 mcg./disc): 27 mm.
zone of inhibition at 300 µg/disc ([1]; 300 mcg./disc, read-out: Zone diameter): 30 mm
zone of inhibition at 30 µg/disc [1]: 22 mm
MIC [2]: 16 µg/mL (≈ 22.7 µM)
MIC [3]: > 128 µg/mL
MIC [4]: 16 µg/mL (≈ 22.7 µM)
MIC [5]: 16 µg/mL (≈ 22.7 µM)
MIC [6]: > 128 µg/mL
MIC [7]: > 128 µg/mL
MIC [8]: > 128 µg/mL
MIC [9]: > 128 µg/mL
MIC [10]: 16 µg/mL (≈ 22.7 µM)
MIC [11]: > 128 µg/mL
MIC (Bacteroides fragilis 111): 32 µg/mL (≈ 45.4 µM)
MIC [12]: 16 µg/mL (≈ 22.7 µM)
MIC ([13]; agar-dilution, read-out: MIC): 8 µg/mL (≈ 11.4 µM)
ED50 (S. pyogenes): > 70 mg/kg
MIC (Peptococcus prevoti 1281; agar-dilution, read-out: MIC): 8 µg/mL (≈ 11.4 µM)
Zone diameter ([14]; 30 mcg./disc, listed as B): 13 mm. and 16 mm.
Zone diameter ([14]; 300 mcg./disc, listed as B): 21 mm. and 27 mm.
MIC ([15]; agar-dilution, read-out: MIC): 32 µg/mL (≈ 45.4 µM)
MIC ([16]; agar-dilution, read-out: MIC): 8 µg/mL (≈ 11.4 µM)
MIC [17]: > 128 µg/mL
Zone diameter ([18]; 30 mcg./disc, listed as B): 18 mm. and 26 mm.
Zone diameter ([18]; 300 mcg./disc, listed as B): 24 mm. and 30 mm.
Zone diameter ([19]; 30 mcg./disc): 15 mm. and 18 mm.
Zone diameter ([19]; 300 mcg./disc): 19 mm. and 26 mm.
in vivo antimicrobial activity against experimental bacterial infections [20]: have shown in vivo antimicrobial activity
activity against a number of anaerobic bacteria (anaerobic bacteria): active
Zone diameter ([21]; 30 mcg./disc): 18 mm. and 20 mm.
Zone diameter ([21]; 300 mcg./disc): 26 mm.
MIC ([22]; agar-dilution, read-out: MIC): 8 µg/mL (≈ 11.4 µM)
MIC [23]: 16 µg/mL (≈ 22.7 µM)
titratable groups (Electrometric titration): no titratable groups
Zone diameter ([24]; 30 mcg./disc): 25 mm.
Zone diameter ([24]; 30 mcg./disc, listed as B): 20 mm.
Zone diameter ([24]; 300 mcg./disc): 32 mm.
Zone diameter ([24]; 300 mcg./disc, listed as B): 35 mm.

CCC/C=C/C=C/C(=O)NC(Cc1ccccc1)C(=O)NC1COC(=O)C2CCCN2C(=O)C(C)NC(=O)C(C)N(C)C(=O)C2CC(C)CN2C1=O (stereo not shown) [Factor D] (X2-FS[ξPro(4ξ-Me)][NMeA]AP; ester 2-C; configuration not given here)
zone of inhibition at 30 µg/disc [1]: 26 mm
zone of inhibition at 300 µg/disc ([1]; read-out: Zone diameter, 300 mcg./disc): 33 mm
MIC [2]: > 128 µg/mL
MIC [3]: > 128 µg/mL
MIC [4]: > 128 µg/mL
MIC [5]: > 128 µg/mL
MIC [6]: > 128 µg/mL
MIC [7]: > 128 µg/mL
MIC [8]: > 128 µg/mL
MIC [9]: > 128 µg/mL
MIC [10]: > 128 µg/mL
MIC [11]: > 128 µg/mL
MIC (Bacteroides fragilis 111): > 128 µg/mL
MIC [12]: > 128 µg/mL
MIC [13]: > 128 µg/mL
ED50 (S. pyogenes): > 70 mg/kg
MIC (Peptococcus prevoti 1281): > 128 µg/mL
Zone diameter ([14]; 30 mcg./disc): 25 mm.
Zone diameter ([14]; 300 mcg./disc): 34 mm.
MIC [15]: > 128 µg/mL
MIC [16]: 128 µg/mL (≈ 178 µM)
MIC [17]: > 128 µg/mL
Zone diameter ([18]; 30 mcg./disc): 24 mm.
Zone diameter ([18]; 300 mcg./disc): 32 mm.
Zone diameter ([19]; 30 mcg./disc): 27 mm.
Zone diameter ([19]; 300 mcg./disc): 28 mm.
in vivo antimicrobial activity against experimental bacterial infections [20]: have shown in vivo antimicrobial activity
activity against a number of anaerobic bacteria (anaerobic bacteria): active
Zone diameter ([21]; 30 mcg./disc): 29 mm.
Zone diameter ([21]; 300 mcg./disc): 30 mm.
MIC [22]: 128 µg/mL (≈ 178 µM)
MIC [23]: > 128 µg/mL
titratable groups (Electrometric titration): no titratable groups
Zone diameter ([24]; 30 mcg./disc): 30 mm.
Zone diameter ([24]; 300 mcg./disc): 34 mm.

CO[C@@H]1[C@@H](OC(N)=O)[C@@H](O)[C@H](Oc2ccc3c(O)c(NC(=O)c4ccc(O)c(CC=C(C)C)c4)c(=O)oc3c2C)OC1(C)C [Novobiocin]
Antibiotic Sensitivity of Culture A54556 (Culture A54556; 30 mcg. disc): +

CO[C@H]1/C=C/O[C@@]2(C)Oc3c(C)c(O)c4c(O)c(c(/C=N/N5CCN(C)CC5)c(O)c4c3C2=O)NC(=O)/C(C)=C\C=C\[C@H](C)[C@H](O)[C@@H](C)[C@@H](O)[C@@H](C)[C@H](OC(C)=O)[C@@H]1C [Rifampin]
Antibiotic Sensitivity of Culture A54556 (Culture A54556; 5 mcg. disc): +

[H]/N=C(/N)N[C@H]1[C@H](O)[C@@H](O)[C@H](O[C@@H]2O[C@@H](C)[C@](O)(C=O)[C@H]2O[C@@H]2O[C@@H](CO)[C@H](O)[C@@H](O)[C@@H]2NC)[C@@H](N/C(N)=N\[H])[C@@H]1O [Streptomycin]
Antibiotic Sensitivity of Culture A54556 (Culture A54556; 10 mcg. disc): +

CN(C)C1C(=O)C(C(N)=O)=C(O)C2(O)C(=O)C3=C(O)c4c(O)cccc4C(C)(O)C3CC12 (stereo not shown) [Tetracycline]
Antibiotic Sensitivity of Culture A54556 (Culture A54556; 30 mcg. disc): +

CN[C@H](CC(C)C)C(=O)N[C@H]1C(=O)N[C@@H](CC(N)=O)C(=O)N[C@H]2C(=O)N[C@H]3C(=O)N[C@H](C(=O)N[C@H](C(=O)O)c4cc(O)cc(O)c4-c4cc3ccc4O)[C@H](O)c3ccc(c(Cl)c3)Oc3cc2cc(c3O[C@@H]2O[C@H](CO)[C@@H](O)[C@H](O)[C@H]2O[C@H]2C[C@](C)(N)[C@H](O)[C@H](C)O2)Oc2ccc(cc2Cl)[C@H]1O [Vancomycin]
Antibiotic Sensitivity of Culture A54556 (Culture A54556; 30 mcg. disc): +
